target: Histone-lysine N-methyltransferase ASH1L (Homo sapiens, UniProt Q9NR48); experiment: Inhibition of MOCR-fused ASH1L SET-BAH ( 2069 to 2833 amino acids) (unknown origin) expressed as in Escherichia coli BL21 (DE3) T1R cells using SAM and chicken mono/dinucleosomes incubated for 1 hr by scintillation counting assay

| Structure (SMILES) | IC50 |
| --- | --- |
| NC(=O)c1cc(-c2cn(CCC(F)F)c3cc(CO)ccc23)ccc1O | < 20 µM |
| NC(=S)c1cccc(-c2cc(C(F)(F)F)cc3[nH]ccc23)c1 | 20 to 100 µM |
| NC(=S)c1cc(-c2c[nH]c3ccccc23)ccc1N | > 100 µM |
| CCCS(=O)(=O)N1CCC(n2cc(-c3cccc(C(N)=S)c3)c3ccc(CNc4c[nH]c(C)n4)cc32)CC1 | < 20 µM |
| NC(=S)c1cccc(-c2cn(CC(CF)CF)c3cc(O)ccc23)c1 | < 20 µM |
| NC(=S)c1cccc(-c2cccc3[nH]ccc23)n1 | > 100 µM |
| NC(=S)c1ccsc1 | > 100 µM |
| NC(=S)c1cccc(-c2c[nH]c3c(CO)cccc23)c1 | 20 to 100 µM |
| NC(=S)c1cccc(-c2cn(C3CCN(S(=O)(=O)C(F)(F)F)CC3)c3cc(CNC(=O)Cc4ccc[nH]4)ccc23)c1 | < 20 µM |
| CCCS(=O)(=O)N1CCC(n2cc(-c3cccc(C(N)=S)c3)c3ccc(CNc4ncc(N)s4)cc32)CC1 | < 20 µM |
| CNCc1ccc2c(-c3cccc(C(N)=S)c3)c[nH]c2c1 | 20 to 100 µM |
| NC(=S)c1cccc(-c2cn(CCCC(F)(F)F)c3cc(N)ccc23)n1 | < 20 µM |
| NC(=S)c1cccc(-c2cn(CCCC(F)(F)F)c3cc(CNC(=O)c4csc(N)n4)ccc23)c1 | < 20 µM |
| COc1cc(C(N)=S)cc(-c2cn(CCCC(F)(F)F)c3cc(N)ccc23)c1 | 20 to 100 µM |
| NC(=S)c1cccc(-c2ccc(O)c3c2CCC3=O)c1 | > 100 µM |
| NC(=S)c1cccc(-c2cn(CC(C(F)F)C(F)F)c3cc(C(O)CCF)ccc23)c1 (centres undefined) | < 20 µM |
| NC(=S)c1cccc(-c2c[nH]c3cnc(N)cc23)c1 | > 100 µM |
| NC(=S)c1cc(-c2cn(CCC(F)F)c3cc(CO)ccc23)c2[nH]ccc2c1 | < 20 µM |
| NC(=S)c1cccc(-c2c[nH]c3cc(N)ccc23)c1 | 20 to 100 µM |
| CS(=O)(=O)N1CCC(n2cc(-c3cccc(C(N)=S)c3)c3ccc(CNC(=O)Cc4[nH]cc5ccccc45)cc32)CC1 | < 20 µM |

| Structure (SMILES) | IC50 |
| --- | --- |
| CCCS(=O)(=O)N1CCC(n2cc(-c3cccc(C(N)=S)c3)c3ccc(CNC(=O)CCCCc4cccc5c4C(=O)N(C4CCC(=O)NC4=O)C5=O)cc32)CC1 (centres undefined) | < 20 µM |
| NC(=S)c1cccc(-c2cn(CC3C(F)(F)COCC3(F)F)c3cc(CO)ccc23)c1 | < 20 µM |
| NC(=S)c1cccc(-c2cn(CCCC(F)(F)F)c3cc(N)ccc23)c1 | < 20 µM |
| NC(=S)c1cccc(-c2cn(CCC(F)F)c3cc(CNCCOCCOCCOCCNc4cccc5c4C(=O)N(C4CCC(=O)NC4=O)C5=O)ccc23)c1 (centres undefined) | < 20 µM |
| NC(=S)c1cc(-c2cn(CCC(F)F)c3cc(CO)ccc23)c2ocnc2c1 | < 20 µM |
| CSC(=N)c1cccc(-c2ccccc2)c1 | > 100 µM |
| NC(=S)c1cccc(-c2cn(C3CCCCC3)c3cc(CO)ccc23)c1 | < 20 µM |
| NC(=S)c1cccc(-c2cn(CCCC(F)(F)F)c3cc(CNS(=O)(=O)c4c[nH]cn4)ccc23)c1 | < 20 µM |
| NC(=S)c1cccc(-c2cn(CC3CCC3)c3cc(CO)ccc23)c1 | < 20 µM |
| Cc1ccc(C(N)=S)cc1-c1cn(C2CCOCC2)c2cc(N)ccc12 | 20 to 100 µM |
| NCc1ccc(-c2cccc(C(N)=S)c2)cc1 | > 100 µM |
| NC(=S)c1cccc(-c2cccc3[nH]ccc23)c1O | > 100 µM |
| NCc1cccc2c(-c3cccc(C(N)=S)c3)c[nH]c12 | 20 to 100 µM |
| NC(=S)c1cccc(-c2cn(CCC(F)F)c3cc4c(cc23)CCNC4)c1 | < 20 µM |
| NC(=S)c1cccc(-n2cc(CCC(F)F)c3cc(CO)ccc32)c1 | < 20 µM |
| NC(=S)c1cccc(-c2cn(C3CCN(S(=O)(=O)CCCCCc4cccc5c4C(=O)N(C4CCC(=O)NC4=O)C5=O)CC3)c3cc(CNc4nnc(N)s4)ccc23)c1 (centres undefined) | < 20 µM |
| Cn1ccc2c(-c3cccc(C(N)=S)c3)cccc21 | 20 to 100 µM |
| NC(=S)c1cccc(-c2ccc(O)cc2)c1 | > 100 µM |
| NC(=S)c1cccc(-c2cccc3[nH]c(CSP(=S)(c4ccccc4)c4ccccc4)cc23)c1 | > 100 µM |
| NC(=S)c1cccc(-c2ccccn2)c1 | > 100 µM |

| Structure (SMILES) | IC50 |
| --- | --- |
| CCCS(=O)(=O)N1CCC(n2cc(-c3cccc(C(N)=S)c3)c3ccc(CNC(=O)Cc4c[nH]cn4)cc32)CC1 | < 20 µM |
| CS(=O)(=O)N1CCC(n2cc(-c3cccc(C(N)=S)c3)c3ccc(N)cc32)CC1 | < 20 µM |
| NC(=S)c1cccc(-c2cn(CC(CF)CF)c3cc(NC(CO)CO)ccc23)c1 | < 20 µM |
| NC(=S)c1cc(-c2ccccc2)cs1 | > 100 µM |
| NC(=S)c1cccc(-c2cn(CCC(F)F)c3cc(CO)ccc23)n1 | < 20 µM |
| NC(=S)c1cccc(-c2cn(CCC(F)F)c3cc(N)ccc23)c1 | < 20 µM |
| NC(=S)c1cccc(-c2cn(CCCC(F)(F)F)c3cc(CNCc4cn[nH]n4)ccc23)c1 | < 20 µM |
| NC(=S)c1cccc(-c2ccc(O)cc2F)c1 | > 100 µM |
| NC(=S)c1cccc(-c2cn(CC(CF)CF)c3cc(CO)ccc23)n1 | < 20 µM |
| CS(=O)(=O)N1CCC(n2cc(-c3cccc(C(N)=S)c3)c3ccc(Nc4nccs4)cc32)CC1 | < 20 µM |
| NC(=O)c1cccc(-c2cn(CC(CF)CF)c3cc(N)ccc23)c1 | < 20 µM |
| NC(=S)c1cccc(-c2c[nH]c3cccc(N)c23)c1 | > 100 µM |
| NC(=S)c1cccc(-n2cc(C3CCCCC3O)c3cc(CO)ccc32)c1 (centres undefined) | < 20 µM |
| CCOc1c[nH]c(CC(=O)NCc2ccc3c(-c4cccc(C(N)=S)c4)cn(C4CCN(S(C)(=O)=O)CC4)c3c2)c1 | < 20 µM |
| NC(=S)c1cccc(-c2cn(C3CCNCC3)c3cc(N)ccc23)c1 | < 20 µM |
| NC(=S)c1cccc(-c2cn(CCC(F)F)c3cc(NC(=O)CC4CC4)ccc23)c1 | < 20 µM |
| NC(=S)c1cccc(-c2cn(CC(CO)C(F)F)c3cc(CO)ccc23)c1 (centres undefined) | < 20 µM |
| NC(=S)c1cccc(-c2c[nH]c3cccc(O)c23)c1 | > 100 µM |
| NC(=S)c1cccc(-c2cn(CCCC(F)(F)F)c3cc(CNCc4cccnc4)ccc23)c1 | < 20 µM |

Next, values leading:

| IC50 | Structure (SMILES) |
| --- | --- |
| < 20 µM | NC(=S)c1cccc(-c2cn(CC(O)C(F)(F)F)c3cc(CO)ccc23)c1 (centres undefined) |
| > 100 µM | NC(=S)c1cncc(-c2cccc3[nH]ccc23)c1 |
| > 100 µM | NC(=S)c1cc(F)cc(-c2ccc(O)cc2)c1 |
| > 100 µM | NC(=S)c1cc(-c2ccc(O)cc2)cs1 |
| < 20 µM | CCCn1cnc(CC(=O)NCc2ccc3c(-c4cccc(C(N)=S)c4)cn(C4CCN(S(=O)(=O)CCC)CC4)c3c2)c1 |
| < 20 µM | NC(=S)c1cccc(-c2cn(CC(CF)CF)c3cc(NC(=O)c4cnc[nH]4)ccc23)c1 |
| > 100 µM | NC(=S)c1cccc(-c2cccc3[nH]c(CO)cc23)c1 |
| 20 to 100 µM | NC(=S)c1cccc(-c2cn(CCCC(F)(F)F)c3cc(CN4CCNCC4)ccc23)c1 |
| < 20 µM | NC(=S)c1cccc(-c2cn(C3CCC3)c3cc(CO)ccc23)c1 |
| > 100 µM | NC(=S)c1ccc(F)c(-c2ccc(O)cc2)c1 |
| > 100 µM | COc1ccccc1-c1cccc(C(N)=S)c1 |
| < 20 µM | NC(=S)c1cccc(-c2cn(C3CNC3)c3cc(CO)ccc23)c1 |
| < 20 µM | NC(=S)c1cccc(-c2cn(CC3C(F)(F)CC3(F)F)c3cc(CO)ccc23)c1 |
| < 20 µM | NC(=S)c1cccc(-c2cn(CCC(F)F)c3cc(CO)ccc23)c1 |
| < 20 µM | CCCS(=O)(=O)N1CCC(n2cc(-c3cccc(C(N)=S)c3)c3ccc(CNc4nnc(N)s4)cc32)CC1 |
| 20 to 100 µM | NC(=S)c1cccc(-c2cccc3c2ccn3CO)c1 |
| > 100 µM | Cc1cc(-c2cccc(C(N)=S)c2)c(C)cc1O |
| > 100 µM | NC(=S)c1cccc(-c2cccc3[nH]c(CNCc4ccccc4)cc23)c1 |
| 13 µM | NCc1ccc2c(-c3cccc(C(N)=S)c3)cn(CCO)c2c1 |
| > 100 µM | NC(=S)c1cccc(-c2cccc3[nH]c(CNCCCO)cc23)c1 |
| > 100 µM | NC(=S)c1cccc(-c2cccnc2)c1 |
| < 20 µM | Cc1ncsc1-c1ccc(CNC(=O)[C@@H]2C[C@@H](O)CN2C(=O)[C@@H](NC(=O)COCCOCCNC(=O)CCC(=O)Nc2ccc3c(-c4cccc(C(N)=S)c4)cn(CC(CF)CF)c3c2)C(C)(C)C)cc1 |
| < 20 µM | NC(=S)c1cccc(-c2cn(CC(CF)CF)c3cc(CNCCOCCOCCOCCNc4cccc5c4C(=O)N(C4CCC(=O)NC4=O)C5=O)ccc23)c1 (centres undefined) |

| IC50 | Structure (SMILES) |
| --- | --- |
| < 20 µM | NC(=S)c1cccc(-c2cn(CCCC(F)(F)F)c3cc(CO)ccc23)c1 |
| 20 to 100 µM | NC(=S)c1cccc(-c2cn(CCO)c3ccccc23)c1 |
| > 100 µM | NC(=S)c1cccc(-n2cccc2)c1 |
| < 20 µM | CCCNc1nnc(NCc2ccc3c(-c4cccc(C(N)=S)c4)cn(C4CCN(S(C)(=O)=O)CC4)c3c2)s1 |
| < 20 µM | CCC(O)c1ccc2c(-c3cccc(C(N)=S)c3)cn(CCC(F)F)c2c1 (centres undefined) |
| 20 to 100 µM | NC(=S)c1cccc(-c2cn(CCC(O)C(F)(F)F)c3cc(N)ccc23)c1 (centres undefined) |
| < 20 µM | NC(=S)c1ccc(F)c(-c2cn(CCCC(F)(F)F)c3cc(N)ccc23)c1 |
| < 20 µM | NC(=S)c1cccc(-c2cn(C3CCN(S(=O)(=O)CCCNC(=O)c4ccc5c(c4)C(=O)OC54c5ccc(O)cc5Oc5cc(O)ccc54)CC3)c3cc(CNC(=O)Cc4c[nH]cn4)ccc23)c1 |
| < 20 µM | NC(=S)c1cccc(-c2cn(CC(CF)CF)c3cc(C(O)CO)ccc23)c1 (centres undefined) |
| > 100 µM | Cc1ccc(C(N)=S)cc1-c1ccc(O)cc1 |
| > 100 µM | NC(=S)c1cccc(-c2cccc(OCc3ccccc3)c2)c1 |
| < 20 µM | NC(=S)c1cccc(-c2cn(CCCC(F)(F)F)c3cc(CNC(=O)c4cscn4)ccc23)c1 |
| < 20 µM | NC(=S)c1cc(-c2cn(CCC(F)F)c3cc(CO)ccc23)ccc1F |
| < 20 µM | NC(=O)c1cccc(-c2cn(CCC(F)F)c3cc(N)ccc23)c1 |
| < 20 µM | NC(=S)c1cccc(-c2cn(CC3(C(F)(F)F)CC3)c3cc(N)ccc23)c1 |
| < 20 µM | CCCS(=O)(=O)N1CCC(n2cc(-c3cccc(C(N)=S)c3)c3ccc(CNC(=O)COc4cccc5c4C(=O)N(C4CCC(=O)NC4=O)C5=O)cc32)CC1 (centres undefined) |
| > 100 µM | NCc1ccnc(-n2cccc2)c1 |
| > 100 µM | NC(=S)c1cccs1 |
| < 20 µM | NC(=S)c1cccc(-c2cc(CCC(F)F)c3[nH]ccc3c2)c1 |
| > 100 µM | NC(=S)c1cccc(-c2cccc(O)c2)c1 |
| < 20 µM | CS(=O)(=O)NCc1ccc2c(-c3cccc(C(N)=S)c3)cn(CCCC(F)(F)F)c2c1 |
| 20 to 100 µM | NC(=S)c1cccc(-c2ccc(O)c3[nH]ccc23)c1 |

Reference: ChEMBL document CHEMBL4482324, “Ash1l inhibitors and methods of treatment therewith” (2017)
